From patent publication US11713344B2 (DONG-A ST CO., LTD., priority 2017, dated 2023)
*1 amine or outer side, *2 acyl side, *3 side chain or, on linkers, in order; H or OH if unused. Where a SMILES comes first, the peptide text is derived from it. Side-chain parts run from the residue outwards. [ ]: non-standard residue; d: D form. The star is where a group is joined. γGlu = O=C(O)[C@H](CCC(=O)[*:2])N[*:1]; Stearoyl = CCCCCCCCCCCCCCCCCC(=O)*; AEEA = NCCOCCOCC(=O)O; Aib = CC(C)(N)C(=O)O

Legend:
Human GLP-1 receptors = Human GLP-1 receptors (Homo sapiens, UniProt P43220); test: GLP-1 receptor activation assay (CRE-luciferase reporter, CHO-K1)
Human glucagon receptors = Human glucagon receptors (Homo sapiens, UniProt P47871); test: Glucagon receptor activation assay (CRE-luciferase reporter, CHO-K1)
Sequence of Human glucagon receptors (P47871 26-477): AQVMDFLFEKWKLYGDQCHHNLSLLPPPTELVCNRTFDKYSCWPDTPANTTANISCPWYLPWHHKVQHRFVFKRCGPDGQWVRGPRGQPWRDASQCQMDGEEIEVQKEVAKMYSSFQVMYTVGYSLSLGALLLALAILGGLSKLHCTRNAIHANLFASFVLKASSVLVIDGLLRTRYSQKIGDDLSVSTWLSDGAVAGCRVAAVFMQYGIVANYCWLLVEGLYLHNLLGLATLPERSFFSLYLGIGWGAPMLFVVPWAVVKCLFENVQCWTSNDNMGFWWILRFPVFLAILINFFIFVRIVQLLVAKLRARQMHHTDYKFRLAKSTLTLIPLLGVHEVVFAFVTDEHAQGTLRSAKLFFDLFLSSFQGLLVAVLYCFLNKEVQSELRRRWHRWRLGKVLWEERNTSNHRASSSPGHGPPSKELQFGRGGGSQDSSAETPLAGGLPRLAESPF

Sequence of Human GLP-1 receptors (P43220 24-463): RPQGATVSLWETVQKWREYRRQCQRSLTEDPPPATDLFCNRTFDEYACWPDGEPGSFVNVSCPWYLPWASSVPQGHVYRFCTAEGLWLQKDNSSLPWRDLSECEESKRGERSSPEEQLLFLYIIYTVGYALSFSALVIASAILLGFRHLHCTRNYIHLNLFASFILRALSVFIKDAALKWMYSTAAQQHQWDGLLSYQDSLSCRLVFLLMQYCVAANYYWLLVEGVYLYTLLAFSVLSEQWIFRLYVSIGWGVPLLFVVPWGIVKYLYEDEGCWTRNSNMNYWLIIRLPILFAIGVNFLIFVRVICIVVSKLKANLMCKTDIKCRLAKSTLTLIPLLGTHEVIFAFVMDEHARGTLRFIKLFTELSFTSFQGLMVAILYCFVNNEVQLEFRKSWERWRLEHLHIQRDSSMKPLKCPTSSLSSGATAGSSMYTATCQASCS

SMILES | EC50 (Human GLP-1 receptors) | EC50 (Human glucagon receptors)
CCCCCCCCCCCCCCCCCC(=O)N[C@@H](CCC(=O)NCCOCCOCC(=O)NCCOCCOCC(=O)NCCCC[C@H](NC(=O)[C@H](CO)NC(=O)[C@@H](NC(=O)[C@H](Cc1ccccc1)NC(=O)[C@@H](NC(=O)CNC(=O)[C@H](CCC(N)=O)NC(=O)C(C)(C)NC(=O)[C@@H](N)Cc1c[nH]cn1)[C@@H](C)O)[C@@H](C)O)C(=O)N[C@@H](Cc1ccc(O)cc1)C(=O)N[C@@H](CO)C(=O)N[C@@H](CCCCN)C(=O)N[C@@H](Cc1ccc(O)cc1)C(=O)N[C@@H](CC(C)C)C(=O)N[C@@H](CC(=O)O)C(=O)NC(C)(C)C(=O)N[C@@H](CCCNC(=N)N)C(=O)N[C@@H](CCCNC(=N)N)C(=O)N[C@@H](C)C(=O)N[C@@H](CCC(N)=O)C(=O)N[C@@H](CC(=O)O)C(=O)N[C@@H](Cc1ccccc1)C(=O)N[C@H](C(=O)N[C@@H](CCC(N)=O)C(=O)N[C@@H](Cc1c[nH]c2ccccc12)C(=O)N[C@@H](CC(C)C)C(=O)N[C@@H](CCSC)C(=O)N[C@@H](CC(N)=O)C(=O)N[C@H](C(=O)N[C@@H](CCCCN)C(=O)O)[C@@H](C)O)C(C)C)C(=O)O [Compound 40] (H-H[Aib]QGTFTSK([AEEA-AEEA-γGlu-Stearoyl])YSKYLD[Aib]RRAQDFVQWLMNTK-OH) | 0.1 to 1 nM | > 1 nM
CSCC[C@H](NC(=O)[C@H](CC(C)C)NC(=O)[C@H](Cc1c[nH]c2ccccc12)NC(=O)[C@H](CCC(N)=O)NC(=O)[C@@H](NC(=O)[C@H](Cc1ccccc1)NC(=O)[C@H](CC(=O)O)NC(=O)[C@H](CCC(N)=O)NC(=O)[C@H](C)NC(=O)[C@H](CCCNC(=N)N)NC(=O)[C@H](CCCNC(=N)N)NC(=O)C(C)(C)NC(=O)[C@H](CC(=O)O)NC(=O)[C@H](CC(C)C)NC(=O)[C@H](Cc1ccc(O)cc1)NC(=O)[C@H](CCCCN)NC(=O)[C@H](CO)NC(=O)[C@H](CCCCNC(=O)COCCOCCNC(=O)COCCOCCNC(=O)CC[C@H](NC(=O)CCCCCCCCCCCCCCC(=O)O)C(=O)O)NC(=O)[C@H](CC(=O)O)NC(=O)[C@H](CO)NC(=O)[C@@H](NC(=O)[C@H](Cc1ccccc1)NC(=O)[C@@H](NC(=O)CNC(=O)[C@H](CCC(N)=O)NC(=O)C(C)(C)NC(=O)[C@@H](N)Cc1c[nH]cn1)[C@@H](C)O)[C@@H](C)O)C(C)C)C(=O)N[C@@H](CC(N)=O)C(=O)N[C@H](C(=O)N[C@@H](CCCCN)C(=O)O)[C@@H](C)O [Compound 42] | 0.1 to 1 nM | > 1 nM
CSCC[C@H](NC(=O)[C@H](CC(C)C)NC(=O)[C@H](Cc1c[nH]c2ccccc12)NC(=O)[C@H](CCC(N)=O)NC(=O)[C@@H](NC(=O)[C@H](Cc1ccccc1)NC(=O)[C@H](CC(=O)O)NC(=O)[C@H](CCC(N)=O)NC(=O)[C@H](C)NC(=O)[C@H](CCCNC(=N)N)NC(=O)[C@H](CCCNC(=N)N)NC(=O)C(C)(C)NC(=O)[C@H](CC(=O)O)NC(=O)[C@H](CC(C)C)NC(=O)[C@H](Cc1ccc(O)cc1)NC(=O)[C@H](CCCCN)NC(=O)[C@H](CO)NC(=O)[C@H](CCCCNC(=O)COCCOCCNC(=O)COCCOCCNC(=O)CC[C@H](NC(=O)CCCCCCCCCCCCCCCCC(=O)O)C(=O)O)NC(=O)[C@H](CC(=O)O)NC(=O)[C@H](CO)NC(=O)[C@@H](NC(=O)[C@H](Cc1ccccc1)NC(=O)[C@@H](NC(=O)CNC(=O)[C@H](CCC(N)=O)NC(=O)C(C)(C)NC(=O)[C@@H](N)Cc1c[nH]cn1)[C@@H](C)O)[C@@H](C)O)C(C)C)C(=O)N[C@@H](CC(N)=O)C(=O)N[C@H](C(=O)N[C@@H](CCCCN)C(=O)O)[C@@H](C)O [Compound 43] | > 1 nM | > 1 nM
CSCC[C@H](NC(=O)[C@H](CC(C)C)NC(=O)[C@H](Cc1c[nH]c2ccccc12)NC(=O)[C@H](CCC(N)=O)NC(=O)[C@@H](NC(=O)[C@H](Cc1ccccc1)NC(=O)[C@H](CC(=O)O)NC(=O)[C@H](CCC(N)=O)NC(=O)[C@H](C)NC(=O)[C@H](CCCNC(=N)N)NC(=O)[C@H](CCCNC(=N)N)NC(=O)C(C)(C)NC(=O)[C@H](CC(=O)O)NC(=O)[C@H](CC(C)C)NC(=O)[C@H](Cc1ccc(O)cc1)NC(=O)[C@H](CCCCN)NC(=O)[C@H](CO)NC(=O)[C@H](CCCCNC(=O)COCCOCCNC(=O)COCCOCCNC(=O)CC[C@H](NC(=O)CCCCCCCCCCCCCCCCCCC(=O)O)C(=O)O)NC(=O)[C@H](CC(=O)O)NC(=O)[C@H](CO)NC(=O)[C@@H](NC(=O)[C@H](Cc1ccccc1)NC(=O)[C@@H](NC(=O)CNC(=O)[C@H](CCC(N)=O)NC(=O)C(C)(C)NC(=O)[C@@H](N)Cc1c[nH]cn1)[C@@H](C)O)[C@@H](C)O)C(C)C)C(=O)N[C@@H](CC(N)=O)C(=O)N[C@H](C(=O)N[C@@H](CCCCN)C(=O)O)[C@@H](C)O [Compound 44] | 0.1 to 1 nM | > 1 nM
CSCC[C@H](NC(=O)[C@H](CC(C)C)NC(=O)[C@H](Cc1c[nH]c2ccccc12)NC(=O)[C@H](CCC(N)=O)NC(=O)[C@@H](NC(=O)[C@H](Cc1ccccc1)NC(=O)[C@H](CC(=O)O)NC(=O)[C@H](CCC(N)=O)NC(=O)[C@H](C)NC(=O)[C@H](CCCNC(=N)N)NC(=O)[C@H](CCCNC(=N)N)NC(=O)C(C)(C)NC(=O)[C@H](CC(=O)O)NC(=O)[C@H](CC(C)C)NC(=O)[C@H](Cc1ccc(O)cc1)NC(=O)[C@H](CCCCN)NC(=O)[C@H](CO)NC(=O)[C@H](CCCCNC(=O)COCCOCCNC(=O)COCCOCCNC(=O)CC[C@H](NC(=O)CCCCCCCCCCCCCCC(=O)NCC(=O)O)C(=O)O)NC(=O)[C@H](CC(=O)O)NC(=O)[C@H](CO)NC(=O)[C@@H](NC(=O)[C@H](Cc1ccccc1)NC(=O)[C@@H](NC(=O)CNC(=O)[C@H](CCC(N)=O)NC(=O)C(C)(C)NC(=O)[C@@H](N)Cc1c[nH]cn1)[C@@H](C)O)[C@@H](C)O)C(C)C)C(=O)N[C@@H](CC(N)=O)C(=O)N[C@H](C(=O)N[C@@H](CCCCN)C(=O)O)[C@@H](C)O [Compound 45] | 0.1 to 1 nM | 0.1 to 1 nM
CSCC[C@H](NC(=O)[C@H](CC(C)C)NC(=O)[C@H](Cc1c[nH]c2ccccc12)NC(=O)[C@H](CCC(N)=O)NC(=O)[C@@H](NC(=O)[C@H](Cc1ccccc1)NC(=O)[C@H](CC(=O)O)NC(=O)[C@H](CCC(N)=O)NC(=O)[C@H](C)NC(=O)[C@H](CCCNC(=N)N)NC(=O)[C@H](CCCNC(=N)N)NC(=O)C(C)(C)NC(=O)[C@H](CC(=O)O)NC(=O)[C@H](CC(C)C)NC(=O)[C@H](Cc1ccc(O)cc1)NC(=O)[C@H](CCCCN)NC(=O)[C@H](CO)NC(=O)[C@H](CCCCNC(=O)COCCOCCNC(=O)COCCOCCNC(=O)CC[C@H](NC(=O)CCCCCCCCCCCCCCC(=O)N[C@H](C(=O)O)C(C)C)C(=O)O)NC(=O)[C@H](CC(=O)O)NC(=O)[C@H](CO)NC(=O)[C@@H](NC(=O)[C@H](Cc1ccccc1)NC(=O)[C@@H](NC(=O)CNC(=O)[C@H](CCC(N)=O)NC(=O)C(C)(C)NC(=O)[C@@H](N)Cc1c[nH]cn1)[C@@H](C)O)[C@@H](C)O)C(C)C)C(=O)N[C@@H](CC(N)=O)C(=O)N[C@H](C(=O)N[C@@H](CCCCN)C(=O)O)[C@@H](C)O [Compound 46] | 0.1 to 1 nM | 0.1 to 1 nM
